{
  "source": "patent US4835185A",
  "about": "“Immunomodulator for improving commercial performance of domestic animals” (Iowa State University Research Foundation, Inc., priority 1987, dated 1989)",
  "key": {"T lymphocytes": {"tested_on": "T lymphocytes", "experiment": "Lamb Trial 2: lymphocyte blastogenesis (3H-thymidine, phytohemaglutinin)", "assay_type": "cell-based, lambs (sheep)", "details": "1% KIC, * p<.05", "from_the_text": "(§1) The lambs used in Trial 1 consisted of medium-frame crossbred wethers and ewes weighing 26 to 31 kg. The lambs used in Trial 2 consisted of medium-framced crossbred rams weighing 18 to 25 kg. Each animal was raised as a single. The lambs were housed in a temperature controlled room in individual pens with nipple waterers. When received, the lamps were vaccinated for enterotoxemia. They were allowed to adjust to the pens and the environment for 10 days. One day before the trial began, the lambs were sheared and placed on their respective dietary treatments. The lamps were allotted blocking by weight and sex into two dietary treatment groups. Growth and feed consumption were measured bi-weekly. All lamb weights were taken after a 12 to 16 hour fast. The animals were slaughtered at 50 kg in the Iowa State University Meat laboratory facilities at Ames, Iowa. At slaughter, the lamb's internal organs and wool were weighed and sampled, loin eye area and back fat measured, and carcasses separated into fat, lean, and bone.\n^(9) Lymphocyte blastogenesis measured by amount of ^3\nH--thymidine incorporated per 2 hrs. of incubation in the presence of\nphytohemaglutinin (a mitogen that stimulates Tlymphocyte division)."}, "[1]": {"experiment": "Laying hens: egg production and egg yolk cholesterol", "assay_type": "in vivo, laying hens (chickens)", "procedure": "Laying hens (69 weeks of age) were randomly assigned to either a control diet or a diet containing 0.2 wt % KIC (Na). For the next 28 days feed consumption was recorded and eggs collected. Eggs were weighed and analyzed for egg yolk cholesterol. The feed composition is shown in Table C and the results in Table D. The total protein was about 18% on a dry matter basis, and the amount of leucine was about 9% of the protein. The control diet was the same except for the omission of the KIC."}, "[2]": {"experiment": "Lamb trials: growth, feed efficiency, wool and carcass", "assay_type": "in vivo, lambs (sheep)", "from_the_text": "as §1\nThe SMB (soybean meal-containing) and the CGM (corn-gluten-containing) diets (compositions given in Table A) were fed twice per day in quantities ensuring that feed was before the lambs at all times. The diets were calculated to be equivalent to each other with respect to metabolizable protein, ether extract, fiber, and minerals with the exception of calcium and phosphorus. […] The CGM diet was calculated to contain slightly more energy (TDN 81.7 vs. 79.0, NEm 1.88 v. 1.86, Neg. 1.23 vs. 1.22). […] The soybean meal ingredient contained about 3.5 wt % leucine, while the corn gluten meal ingredient contained about 15 wt % leucine. The CGM diet was therefore higher in leucine than the SBM diet, containing an estimated 16 wt % leucine as compared with an estimated 8 wt % leucine based on total crude protein in the diet.\n^(1) Feed ingredients given on wt % basis.\n^(3) Diets containing calcium salt of alphaketoisocaproate (KIC).\n^(1) Statistical analysis: *designates p < .05, a significant\n^(2) Average daily (24 hrs.) gain (kilograms).\n^(3) Kilograms feed per kilogram weight gain.\n^(4) Amount of wool in grams.\n^(5) Amount of back fat in inches.\n^(6) Amount of lean meat in kilograms.\n^(1)- (8) See Table B, except cholesterol data is for lean tissue"}, "white blood cells": {"tested_on": "white blood cells", "experiment": "White blood cell number and differential, cattle (experiment 3)", "assay_type": "in vivo, castrated male cattle", "procedure": "In experiment 3 72 castrated male cattle were allotted to 12 pens of 6 animals each. Three pens were assigned to each treatment: 0.0% KIC, 0.02% KIC, 0.07% KIC, and 0.20% KIC. Animals were fed ad libitum the respective diets for 6 weeks. At the end of the 6-233k periods, 100-ml blood samples were collected from each animal, and lymphocyte and neutrophil function were evaluated.\nThe basal cattle diet (experiment 3) consisted of 49% corn, 24% corn-cobs, 18% soybean meal, 7% molasses, 1.3% limestone, 0.25% dicalcium phosphate, 0.23% salt, 0.02% trace-mineral premix, and 0.11% vitamin premix. The basal diet was supplemented with w/w 0.05% control pellets, 0.04% KIC pellets, or 0.4% KIC pellets. All animals consumed ~10 kg of feed per day, resulting in ~0, 2, 7, or 20 g of Ca-KIC consumed per animal per day or 0, 0.02, 0.07, and 0.2% KIC of the total diet.\nKIC pellets were made by mixing zein, ethanol, KIC, limestone, bentonite, and water in a ratio of […]. This mixture was extruded through a die of 15 mm directly into a vat of liquid nitrogen. The shattered pellets were spread out and allowed to air-dry for 2 days. The pellets were coated with zein (2% w/w) by spraying with a 30% zein solution made in 80% ethanol. The pellets again were air-dryed. Control pellets were made similarly to the KIC pellets except that the mixture was zein, limestone, ethanol, bentonite, and water in a ratio of 12:12:7.5:2.7:1. When KIC pellets were placed in the rumen (nylon bag technique), […] of the KIC added was present in the bags after 24 hr of rumen fermentation. It was estimated that uncoated KIC was 95% degraded in the rumen.\nBlood was collected by jugular venapuncture into acid-citrate-dextrose anticoagulant. Lymphocytes and neutrophils were isolated, and lymphocyte blastogenesis and neutrophil function evaluated. KIC was obtained from SOBAC, Paris, France. Zein was purchased from Freeman Industries, Tuckahoe, NY. Each experiment was statistically analyzed by analysis of variance. In sheep experiments, individual animals were the experimental units, whereas pen means were analyzed in the cattle experiment.\n^2 Total white blood cell number (WBC) is the cells per mm^3."}},
  "data": [
    {"compound": "CC(C)CC(=O)C(=O)O", "note": "[KIC, alpha-ketoisocaproate]", "values": [
      {"measurement": "LYMPHOCYTE BLASTOGENESIS: amount of 3H-thymidine incorporated per 2 hrs. of incubation", "setting": "T lymphocytes; Trial 2, CGM diet, phytohemaglutinin (0%: 6134)", "result": 18102},
      {"measurement": "LYMPHOCYTE BLASTOGENESIS: amount of 3H-thymidine incorporated per 2 hrs. of incubation", "setting": "T lymphocytes; Trial 2, SBM diet, phytohemaglutinin (0%: 5993)", "result": 14625},
      {"measurement": "Av. Eggs", "setting": "[1]; 0.2 wt % KIC (Na), 28 days (control 1.105)", "result": 1.233, "unit": "kg./hen"},
      {"measurement": "Average No. Eggs/Hen", "setting": "[1]; 0.2 wt % KIC (Na), 28 days (control 17.7)", "result": 19.5},
      {"measurement": "Feed Average", "setting": "[1]; 0.2 wt % KIC (Na), 28 days (control 109)", "result": 109, "unit": "gms/hen/day"},
      {"measurement": "Avg. yolk Cholesterol", "setting": "[1]; 0.2 wt % KIC (Na), 28 days (control 1068)", "result": 996, "unit": "mg/100 gms"},
      {"measurement": "Av. Eggs (kg./hen), % Change", "setting": "[1]; vs control", "result": "+11.1%"},
      {"measurement": "Average No. Eggs/Hen, % Change", "setting": "[1]; vs control", "result": "+10.2%"},
      {"measurement": "Avg. yolk Cholesterol, % Change", "setting": "[1]; vs control", "result": -7, "unit": "%"},
      {"measurement": "Feed Average, % Change", "setting": "[1]; vs control", "result": 0, "unit": "%"},
      {"measurement": "F/G: kilograms feed per kilogram weight gain", "setting": "[2]; Trial 1, CGM diet, 1% KIC (0%: 4.53), * p<.05", "result": 5.20},
      {"measurement": "LEAN: amount of lean meat", "setting": "[2]; Trial 1, CGM diet, 1% KIC (0%: 5.9)", "result": 6.0, "unit": "kilograms"},
      {"measurement": "WOOL: amount of wool", "setting": "[2]; Trial 1, CGM diet, 1% KIC (0%: .158), * p<.05", "result": ".167 grams"},
      {"measurement": "BACK FAT: amount of back fat", "setting": "[2]; Trial 1, CGM diet, 1% KIC (0%: .20)", "result": ".18 inches"},
      {"measurement": "ADG: average daily (24 hrs.) gain", "setting": "[2]; Trial 1, CGM diet, 1% KIC (0%: .37)", "result": ".30 kilograms"},
      {"measurement": "F/G: kilograms feed per kilogram weight gain", "setting": "[2]; Trial 1, SBM diet, 1% KIC (0%: 5.04), * p<.05", "result": 4.82},
      {"measurement": "LEAN: amount of lean meat", "setting": "[2]; Trial 1, SBM diet, 1% KIC (0%: 6.2)", "result": 6.8, "unit": "kilograms"},
      {"measurement": "WOOL: amount of wool", "setting": "[2]; Trial 1, SBM diet, 1% KIC (0%: .176), * p<.05", "result": ".216 grams"},
      {"measurement": "BACK FAT: amount of back fat", "setting": "[2]; Trial 1, SBM diet, 1% KIC (0%: .26)", "result": ".22 inches"},
      {"measurement": "ADG: average daily (24 hrs.) gain", "setting": "[2]; Trial 1, SBM diet, 1% KIC (0%: .33)", "result": ".36 kilograms"},
      {"measurement": "F/G: kilograms feed per kilogram weight gain", "setting": "[2]; Trial 2, CGM diet, 1% KIC (0%: 4.17)", "result": 4.35},
      {"measurement": "LEAN: amount of lean meat", "setting": "[2]; Trial 2, CGM diet, 1% KIC (0%: 6.1)", "result": 5.8, "unit": "kilograms"},
      {"measurement": "WOOL: amount of wool", "setting": "[2]; Trial 2, CGM diet, 1% KIC (0%: .262), * p<.05", "result": ".294 grams"},
      {"measurement": "BACK FAT: amount of back fat", "setting": "[2]; Trial 2, CGM diet, 1% KIC (0%: .29)", "result": ".20 inches"},
      {"measurement": "ADG: average daily (24 hrs.) gain", "setting": "[2]; Trial 2, CGM diet, 1% KIC (0%: .333), * p<.05", "result": ".308 kilograms"},
      {"measurement": "F/G: kilograms feed per kilogram weight gain", "setting": "[2]; Trial 2, SBM diet, 1% KIC (0%: 4.76), * p<.05", "result": 4.17},
      {"measurement": "LEAN: amount of lean meat", "setting": "[2]; Trial 2, SBM diet, 1% KIC (0%: 5.9)", "result": 5.4, "unit": "kilograms"},
      {"measurement": "WOOL: amount of wool", "setting": "[2]; Trial 2, SBM diet, 1% KIC (0%: .213), * p<.05", "result": ".267 grams"},
      {"measurement": "BACK FAT: amount of back fat", "setting": "[2]; Trial 2, SBM diet, 1% KIC (0%: .26)", "result": ".21 inches"},
      {"measurement": "ADG: average daily (24 hrs.) gain", "setting": "[2]; Trial 2, SBM diet, 1% KIC (0%: .304), * p<.05", "result": ".339 kilograms"},
      {"measurement": "% SEG", "setting": "white blood cells; Exp. 3, oral coated 0.02% KIC (control 28)", "result": "29% of Total WBC"},
      {"measurement": "% LYM", "setting": "white blood cells; Exp. 3, oral coated 0.02% KIC (control 52)", "result": "63% of Total WBC"},
      {"measurement": "% EOS", "setting": "white blood cells; Exp. 3, oral coated 0.02% KIC (control .7)", "result": ".9% of Total WBC"},
      {"measurement": "% SEG", "setting": "white blood cells; Exp. 3, oral coated 0.07% KIC (control 28)", "result": "24% of Total WBC"},
      {"measurement": "% LYM", "setting": "white blood cells; Exp. 3, oral coated 0.07% KIC (control 52)", "result": "69% of Total WBC"},
      {"measurement": "% EOS", "setting": "white blood cells; Exp. 3, oral coated 0.07% KIC (control .7)", "result": ".7% of Total WBC"},
      {"measurement": "% SEG", "setting": "white blood cells; Exp. 3, oral coated 0.20% KIC (control 28)", "result": "24% of Total WBC"},
      {"measurement": "% LYM", "setting": "white blood cells; Exp. 3, oral coated 0.20% KIC (control 52)", "result": "52% of Total WBC"},
      {"measurement": "% EOS", "setting": "white blood cells; Exp. 3, oral coated 0.20% KIC (control .7)", "result": "1.1% of Total WBC"}
    ]}
  ]
}
